From PMC12445744, “Molecular docking to homology models of human and Trypanosoma brucei ERK8 that identified ortholog-specific inhibitors” (PLOS Neglected Tropical Diseases, 2025)
Several values for one entry are separate records, joined by “and”; a condition that tells them apart may be missing. Equal entries are not always repeated.

Molecular target: T1, TbERK8 (Trypanosoma brucei brucei, UniProt Q38B88)
T1 sequence (Q38B88 1-442): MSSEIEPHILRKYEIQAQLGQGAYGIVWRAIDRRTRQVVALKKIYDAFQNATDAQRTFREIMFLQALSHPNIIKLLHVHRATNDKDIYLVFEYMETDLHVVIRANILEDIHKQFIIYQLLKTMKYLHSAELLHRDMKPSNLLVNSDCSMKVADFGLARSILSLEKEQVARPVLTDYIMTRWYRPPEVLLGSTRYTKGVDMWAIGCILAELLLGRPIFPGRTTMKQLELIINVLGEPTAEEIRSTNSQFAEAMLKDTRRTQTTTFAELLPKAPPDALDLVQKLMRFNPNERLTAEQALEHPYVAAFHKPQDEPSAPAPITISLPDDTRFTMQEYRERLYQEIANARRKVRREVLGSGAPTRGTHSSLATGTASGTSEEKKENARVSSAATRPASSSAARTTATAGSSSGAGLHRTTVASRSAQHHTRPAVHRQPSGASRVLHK
Assay: Luciferase-based kinase inhibition assay (ATP luminescence), GST-tagged TbERK8 with MBP substrate
Format: biochemical
Design: raw luminescence, TbERK8: unit of the concentration uncertain
Conditions: for raw luminescence, TbERK8: replicate wells; for raw luminescence, TbERK8 / Luminescence Raw (Kinase-Glo): listed as Sil; for Luminescence Raw (Kinase-Glo): TbERK8

CCCc1nn(C)c2c(=O)[nH]c(-c3cc(S(=O)(=O)N4CCN(C)CC4)ccc3OCC)nc12 [Sildenafil]
IC50: 9 mM
raw luminescence, TbERK8 (0.00015 (unit uncertain) compound, sheet ADP_ATP_glo081724 (3)): 192.26 RLU and 196.784 RLU and 144.761 RLU
raw luminescence, TbERK8 (0.00015 (unit uncertain) compound, sheet Kinase_glo 08142024 (2)): 642.503 RLU and 676.319 RLU and 570.644 RLU
raw luminescence, TbERK8 (0.00015 (unit uncertain) compound, sheet Kinase_glo_080924_IFPS (2)): 1471.05 RLU and 1414.9 RLU and 1313.84 RLU
raw luminescence, TbERK8 (0.00061 (unit uncertain) compound, sheet ADP_ATP_glo081724 (3)): 122.142 RLU and 174.165 RLU and 104.047 RLU
raw luminescence, TbERK8 (0.00061 (unit uncertain) compound, sheet Kinase_glo 08142024 (2)): 718.589 RLU and 748.177 RLU and 712.248 RLU
raw luminescence, TbERK8 (0.00061 (unit uncertain) compound, sheet Kinase_glo_080924_IFPS (2)): 788.303 RLU and 923.056 RLU and 783.811 RLU
raw luminescence, TbERK8 (0.00244 (unit uncertain) compound, sheet ADP_ATP_glo081724 (3)): 246.545 RLU and 205.831 RLU and 226.188 RLU
raw luminescence, TbERK8 (0.00244 (unit uncertain) compound, sheet Kinase_glo 08142024 (2)): 701.681 RLU and 748.177 RLU and 629.822 RLU
raw luminescence, TbERK8 (0.00244 (unit uncertain) compound, sheet Kinase_glo_080924_IFPS (2)): 458.159 RLU and 390.783 RLU and 375.062 RLU
raw luminescence, TbERK8 (0.00977 (unit uncertain) compound, sheet ADP_ATP_glo081724 (3)): 235.236 RLU and 187.736 RLU and 135.713 RLU
raw luminescence, TbERK8 (0.00977 (unit uncertain) compound, sheet Kinase_glo 08142024 (2)): 820.036 RLU and 841.171 RLU and 775.653 RLU
raw luminescence, TbERK8 (0.00977 (unit uncertain) compound, sheet Kinase_glo_080924_IFPS (2)): 660.288 RLU and 590.666 RLU and 547.994 RLU
raw luminescence, TbERK8 (0.03906 (unit uncertain) compound, sheet ADP_ATP_glo081724 (3)): 210.355 RLU and 205.831 RLU and 187.736 RLU
raw luminescence, TbERK8 (0.03906 (unit uncertain) compound, sheet Kinase_glo 08142024 (2)): 526.26 RLU and 661.524 RLU and 672.092 RLU
raw luminescence, TbERK8 (0.03906 (unit uncertain) compound, sheet Kinase_glo_080924_IFPS (2)): 981.449 RLU and 954.498 RLU and 819.745 RLU
raw luminescence, TbERK8 (0.15625 (unit uncertain) compound, sheet ADP_ATP_glo081724 (3)): 341.544 RLU and 352.854 RLU and 287.259 RLU
raw luminescence, TbERK8 (0.15625 (unit uncertain) compound, sheet Kinase_glo 08142024 (2)): 849.625 RLU and 830.604 RLU and 743.951 RLU
raw luminescence, TbERK8 (0.15625 (unit uncertain) compound, sheet Kinase_glo_080924_IFPS (2)): 1302.61 RLU and 956.744 RLU and 1116.2 RLU
raw luminescence, TbERK8 (0.62500 (unit uncertain) compound, sheet ADP_ATP_glo081724 (3)): 653.684 RLU and 678.565 RLU and 508.924 RLU
raw luminescence, TbERK8 (0.62500 (unit uncertain) compound, sheet Kinase_glo 08142024 (2)): 1502.69 RLU and 1635.85 RLU and 1447.74 RLU
raw luminescence, TbERK8 (0.62500 (unit uncertain) compound, sheet Kinase_glo_080924_IFPS (2)): 10771.2 RLU and 11665.1 RLU and 9012.71 RLU
raw luminescence, TbERK8 (2.50000 (unit uncertain) compound, sheet ADP_ATP_glo081724 (3)): 9775.86 RLU and 9642.41 RLU and 4501.15 RLU
raw luminescence, TbERK8 (2.50000 (unit uncertain) compound, sheet Kinase_glo 08142024 (2)): 30745 RLU and 32114.6 RLU and 32366.1 RLU
raw luminescence, TbERK8 (2.50000 (unit uncertain) compound, sheet Kinase_glo_080924_IFPS (2)): 19880.5 RLU and 19849.1 RLU and 15795.3 RLU
raw luminescence, TbERK8 (10.00000 (unit uncertain) compound, sheet ADP_ATP_glo081724 (3)): 17380.3 RLU and 17721.9 RLU and 17968.4 RLU
raw luminescence, TbERK8 (10.00000 (unit uncertain) compound, sheet Kinase_glo 08142024 (2)): 40177.6 RLU (2×) and 40048.6 RLU
raw luminescence, TbERK8 (10.00000 (unit uncertain) compound, sheet Kinase_glo_080924_IFPS (2), signal = ATP left): 19548.1 RLU and 21185.4 RLU and 21443.6 RLU
Luminescence Raw (Kinase-Glo) (inhibitor 0.00976562 mM, sheet Sil_Pred3, read 3): 36049.4 and 37274.6 and 36862.3
Luminescence Raw (Kinase-Glo) (inhibitor 0.0195312 mM, sheet Sil_Pred3, read 3): 31279.7 and 32797.7 and 32247.2
Luminescence Raw (Kinase-Glo) (inhibitor 0.0390625 mM, sheet Sil_Pred3, read 3): 27320.5 and 29281.3 and 28655.8
Luminescence Raw (Kinase-Glo) (inhibitor 0.078125 mM, sheet Sil_Pred3, read 3): 38799.7 and 40144.4 and 45260.9
Luminescence Raw (Kinase-Glo) (inhibitor 0.15625 mM, sheet Sil_Pred3, read 3): 29028.3 and 32258.9 and 32301.1
Luminescence Raw (Kinase-Glo) (inhibitor 0.3125 mM, sheet Sil_Pred3, read 3): 27939 and 30286.4 and 29686.6
Luminescence Raw (Kinase-Glo) (inhibitor 0.625 mM, sheet Sil_Pred3, read 3): 36091.6 and 38406.1 and 37640.1
Luminescence Raw (Kinase-Glo) (inhibitor 0.00976562, sheet Sil_Pred1, read 1): 40167.3 and 42010.2 and 38672.9
Luminescence Raw (Kinase-Glo) (inhibitor 0.00976562, sheet Sil_Pred2, read 2): 37219 and 38747.1 and 37019
Luminescence Raw (Kinase-Glo) (inhibitor 0.0195312, sheet Sil_Pred1, read 1): 34760.2 and 36412.8 and 34705.2
Luminescence Raw (Kinase-Glo) (inhibitor 0.0195312, sheet Sil_Pred2, read 2): 32386.1 and 33904.8 and 32825.7
Luminescence Raw (Kinase-Glo) (inhibitor 0.0390625, sheet Sil_Pred1, read 1): 30029.2 and 32598.7 and 32204.5
Luminescence Raw (Kinase-Glo) (inhibitor 0.0390625, sheet Sil_Pred2, read 2): 28304.4 and 29974.3 and 30192.9
Luminescence Raw (Kinase-Glo) (inhibitor 0.078125, sheet Sil_Pred1, read 1): 43786.6 and 44925.8 and 48645.9
Luminescence Raw (Kinase-Glo) (inhibitor 0.078125, sheet Sil_Pred2, read 2): 39158.7 and 41749.6 and 45619.7
Luminescence Raw (Kinase-Glo) (inhibitor 0.15625, sheet Sil_Pred1, read 1): 32447.4 and 35952.1 and 35828.3
Luminescence Raw (Kinase-Glo) (inhibitor 0.15625, sheet Sil_Pred2, read 2): 29879 and 33446.7 and 32672.2
Luminescence Raw (Kinase-Glo) (inhibitor 0.3125, sheet Sil_Pred1, read 1): 31858.4 and 33536.2 and 32552.9
Luminescence Raw (Kinase-Glo) (inhibitor 0.3125, sheet Sil_Pred2, read 2): 29706.8 and 31355.8 and 30890.7
Luminescence Raw (Kinase-Glo) (inhibitor 0.625, sheet Sil_Pred1, read 1): 41361.5 and 43495.5 and 43241.1
Luminescence Raw (Kinase-Glo) (inhibitor 0.625, sheet Sil_Pred2, read 2): 37112 and 39789 and 39512.2
